What all share (assay type): cell-based
For experiment [1], the target named is T1, human CYP11B1 (Homo sapiens (Human), UniProt P15538). Kind of experiment: V79-Human-CYP11B1 cell assay. The settings on record: V79 cells expressing human CYP11B1; 250 nM 11-deoxycortisol; cortisol by HTRF. The method, then:
(§1) V79 cell lines stably expressing the either the human CYP11B2 or the human CYP11B1 enzyme were generated using a standard transfection protocol. V79 cells were transfected with plasmids pTriEx3-Hygro-hCyp11B2 or pTriEx3-Hygro-hCyp11B1 using Lipofectamine2000 reagent. V79 cells that stably express the human CYP11B2 or human CYP11B1 enzyme were selected for and maintained in DMEM supplemented with 10% FBS and 400 μg/mL hygromycin for 2 weeks. Single cell clones were generated by infinite dilution in DMEM supplemented with 10% FBS and 400 μg/mL hygromycin until single colonies were obtained. Clones V79-hCYP11B2-CLE9 and V79-hCYP11B1-CL8C7, were determined to produce the most aldosterone and cortisol, respectively, and were selected for inhibitor screening. For testing of inhibitors, cells were harvested at 80% confluency with 0.05% Trypsan-EDTA, washed once in PBS, and reconstituted in DMEM+0.1% BSA media at a cell concentration of 600,000 cells/mL for the CYP11B2 assay and 280,000 cells/mL for the CYP11B1 assay. 25 μL of cells were added to a 384 well tissue culture treated plate and mixed with 0.3 μL of inhibitor or DMSO (1% final DMSO concentration) for 1 hour at 37° C., 5% CO2. After pre-incubation with inhibitor, the reaction was initiated by adding 5 μL of substrate (final concentration of 125 nM 11-deoxycorticosterone for the CYP11B2 assay or 250 nM 11-deoxycortisol for the CYP11B1 assay). The reaction was carried out for 3 hours at 37° C., 5% CO2 and was stopped by harvesting the supernatants. The amount of product in the supernatant (aldosterone for CYP11B2 assay and cortisol for the CYP11B1 assay) was measured using HTRF-based assay kit (Aldosterone HTRF-CisBio#64ALDPEB, Cortisol HTRF-CisBio #63IDC002-CORT). IC50s for the inhibitor were determined by plotting the amount of product formed against the concentration of inhibitor using sigmoidal dose-response curve (variable slope) fit in GraphPad.
On the technique in general: In TR-FRET formats the signal depends on donor and acceptor labels being close together.

Experiment [2] has as its target T2, human CYP11B2 (Homo sapiens (Human), UniProt P19099). Briefly: V79-Human-CYP11B2 cell assay. The settings on record: V79 cells expressing human CYP11B2; 125 nM 11-deoxycorticosterone; aldosterone by HTRF. The method, then: as §1, with “Clones V79-hCYP11B2-CLE9 and V79-hCYP11B1-CL8C7, were determined to produce the most aldosterone and cortisol, respectively, and were selected for inhibitor screening.” left out

Experiment [3] has as its target T2, human CYP11B2. Briefly: V79-Human-CYP11B2 cell assay, modified protocol. The settings on record: V79 cells expressing human CYP11B2. The method, then: as §1, with “Clones V79-hCYP11B2-CLE9 and V79-hCYP11B1-CL8C7, were determined to produce the most aldosterone and cortisol, respectively, and were selected for inhibitor screening.” left out
(§2) For the CYP11B2 assay, cells were reconstituted in DMEM+0.1% BSA media at a cell concentration of 600,000 cells/mL and for the CYP11B1 assay cells were reconstituted in DMEM+0.1% BSA media at a cell concentration of 280,000 cells/mL. 25 μl of cells were added to a 384 well tissue culture treated plate and mixed with […] or DMSO (1% final DMSO concentration) for 1 hour at 37° C., 5% CO2.

The target of experiment [4] is T1, human CYP11B1. Kind of experiment: V79-Human-CYP11B1 cell assay, modified protocol. The settings on record: V79 cells expressing human CYP11B1. The procedure:
as §1, with “Clones V79-hCYP11B2-CLE9 and V79-hCYP11B1-CL8C7, were determined to produce the most aldosterone and cortisol, respectively, and were selected for inhibitor screening.” left out
as §2

In general, pIC50 refers to −log10 of the IC50, conventionally taken in molar units. Lower therefore signals a large IC50.

pIC50: −log10 of the molar value.

T1 sequence (P15538 25-503): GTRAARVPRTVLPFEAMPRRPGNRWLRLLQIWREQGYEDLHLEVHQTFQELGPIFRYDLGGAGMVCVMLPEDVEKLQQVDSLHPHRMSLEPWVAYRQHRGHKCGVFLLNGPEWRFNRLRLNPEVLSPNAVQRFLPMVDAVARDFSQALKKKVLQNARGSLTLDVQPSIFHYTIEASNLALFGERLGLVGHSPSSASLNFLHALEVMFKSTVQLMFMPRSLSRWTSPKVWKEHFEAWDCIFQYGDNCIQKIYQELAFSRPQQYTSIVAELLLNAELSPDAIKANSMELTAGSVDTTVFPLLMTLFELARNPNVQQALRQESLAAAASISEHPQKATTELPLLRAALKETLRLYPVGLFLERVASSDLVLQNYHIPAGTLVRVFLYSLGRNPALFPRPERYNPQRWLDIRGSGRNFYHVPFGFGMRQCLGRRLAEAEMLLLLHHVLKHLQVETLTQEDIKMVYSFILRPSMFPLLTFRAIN
T2 sequence (P19099 25-503): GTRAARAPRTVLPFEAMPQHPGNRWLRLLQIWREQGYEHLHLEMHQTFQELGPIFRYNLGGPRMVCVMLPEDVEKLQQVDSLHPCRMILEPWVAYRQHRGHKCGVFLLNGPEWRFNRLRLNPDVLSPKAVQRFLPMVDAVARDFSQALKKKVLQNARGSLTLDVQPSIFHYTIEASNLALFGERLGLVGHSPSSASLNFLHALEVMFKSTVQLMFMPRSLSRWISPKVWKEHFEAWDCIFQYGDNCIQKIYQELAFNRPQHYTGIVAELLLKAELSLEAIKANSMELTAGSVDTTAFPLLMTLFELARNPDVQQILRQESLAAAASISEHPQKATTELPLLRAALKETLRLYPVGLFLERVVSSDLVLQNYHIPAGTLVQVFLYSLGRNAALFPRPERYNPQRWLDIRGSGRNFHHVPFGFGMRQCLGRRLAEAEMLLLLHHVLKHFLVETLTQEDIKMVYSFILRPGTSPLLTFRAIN

In the case of `CC(=O)N1CCc2cc(-c3cncc(F)c3)c(Cl)cc21` [Example 45, 1-(6-chloro-5-(5-fluoropyridine-3-yl)indolin-1-yl)ethanone], the pIC50 in experiment [1] was 6.12; in experiment [2], 6.09.

For the compound `CC(=O)n1ccc2cc(-c3cccnc3)ccc21` [Example 50, 1-Acetyl-5-pyridin-3-yl-1H-indole], the pIC50 was 7.64 in experiment [3] and 5.86 in experiment [4].

On to `CCC(=O)N1CCc2cc(-c3cccnc3)ccc21` [Example 21, 1-propanoyl-5-pyridin-3-yl-2,3-dihydro-1H-indole], for which the figures for the pIC50 in experiment [3] and in experiment [4] were 6.64 and 5.32, respectively.

On to `CC(=O)N1CCc2cc(-c3cncc([C@](C)(O)C(F)(F)F)c3)cc(F)c21` [Example 13, (S)-1-(7-fluoro-5-(5-(1,1,1-trifluoro-2-hydroxypropan-2-yl)pyridin-3-yl)indolin-1-yl)ethanone], for which the pIC50 in experiment [1] was 7.64; in experiment [2] it was 8.68.

For `CC(=O)N1CCc2cc(-c3cncc(F)c3C)cc(F)c21` [Example 19, 1-(7-fluoro-5-(5-fluoro-4-methylpyridine-3-yl)indolin-1-yl)-ethanone], the pIC50 is 7.00 in experiment [1] and 9.00 in experiment [2].

As to `CC(=O)N1CCc2cc(-c3cncc4ccccc34)cc(Cl)c21` [Example 11, 1-(7-chloro-5-(isoquinolin-4-yl)indolin-1-yl)ethanone], the negative-log IC50 (pIC50) is 7.22 in experiment [1] and 9.15 in experiment [2].

For the compound `CC(=O)N1CCc2cc(-c3cncc(C#N)c3C)cc(F)c21` [Example 17, 5-(1-acetyl-7-fluoroindolin-5-yl)-4-methylnicotino nitrile], the pIC50 in experiment [1] was 6.27; in experiment [2] it was 7.92.

`CCc1c(F)cncc1-c1cc2c(cc1Cl)N(C(C)=O)CC2` [Example 46, 1-(6-chloro-5-(4-ethyl-5-fluoropyridine-3-yl)indolin-1-yl)ethanone]: the pIC50 is 6.11 in experiment [1] and 6.21 in experiment [2].

Regarding `CCc1c(F)cncc1-c1cc(Cl)c2c(c1)CCN2C(C)=O` [Example 9, 1-(7-chloro-5-(4-ethyl-5-fluoropyridin-3-yl)indolin-1-yl)ethanone], the results for the pIC50 in experiment [1] and in experiment [2] were 6.40 and 8.64, respectively.

`CC(=O)N1CCc2cc(-c3cncc([C@](C)(O)C(F)(F)F)c3)cc(Cl)c21` [Example 4, (S)-1-(7-chloro-5-(5-(1,1,1,-trifluoro-2-hydroxypropan-2-yl)pydine-3-yl)indolin-1-yl)ethanone]: the pIC50 is 7.59 in experiment [1] and 8.92 in experiment [2].

For the compound `CC(=O)N1CCc2cc(-c3cncc([C@@](C)(O)C(F)(F)F)c3)cc(F)c21` [Example 14, (R)-1-(7-fluoro-5-(5-(1,1,1-trifluoro-2-hydroxypropan-2-yl)pyridin-3-yl)indolin-1-l)ethanone], the pIC50 in experiment [1] is 7.89; in experiment [2], 9.10.

In the case of `COc1cncc(-c2cc(Cl)c3c(c2)CCN3C(C)=O)c1` [Example 3, 1-(7-chloro-5-(5-methoxypyridin-3-yl)indolin-1-yl)ethanone], the values for the pIC50 in experiment [1] and in experiment [2] were 6.89 and 8.39, respectively.

For the compound `CC(=O)N1CCc2cc(-c3cccnc3)c(F)cc21` [Example 47, 1-(6-fluoro-5-(pyridin-3-yl)indon-1-yl)ethanone], the pIC50 in experiment [1] was 6.42; in experiment [2], 6.74.

With `CCc1c(F)cncc1-c1cc2c(cc1F)N(C(C)=O)CC2` [Example 49, 1-(5-(4-ethyl-5-fluoropyridin-3-yl)-6-fluoroindolin-1-yl)ethanone], the results for the pIC50 in experiment [1] and in experiment [2] were 5.40 and 6.77, respectively.

As for `CC(=O)N1CCc2cc(-c3cncc(C(F)(F)F)c3)cc(Cl)c21` [Example 6, 1-(7-chloro-5-(5-(triuoromethyl)pyridine-3-yl)indolin-1-yl)ethanone], the pIC50 in experiment [1] is 6.40; in experiment [2], 8.12.

`CC(=O)N1CCc2cc(-c3cncc(F)c3)c(F)cc21` [Example 48, 1-(6-fluoro-5-(5-fluoropyridin-3-yl)indolin-1-yl)ethanone] had a pIC50 in experiment [1] of under 5.00.

Take `CCc1c(F)cncc1-c1cc(F)c2c(c1)CCN2C(C)=O` [Example 20, 1-(5-(4-ethyl-5-fluoropyridine-3-yl)-7-fluoroindolin-1-yl)ethanone]: the pIC50 was 6.30 in experiment [1] and 8.80 in experiment [2].

For `CC(=O)N1CCc2cc(-c3cncc(F)c3)cc(F)c21` [Example 18, 1-(7-fluoro-5-(5-fluoropyridine-3-yl)indolin-1-yl)-ethanone], the pIC50 in experiment [1] was 5.96; in experiment [2], 7.82.

Consider `CC(=O)N1CCc2cc(-c3cncc(F)c3)cc(Cl)c21` [Example 2, 1-(7-chloro-5-(5-fluoropyridine-3-yl)indolin-1-yl)ethanone], for which the pIC50 in experiment [1] was 5.10; in experiment [2] it was 7.92.

On to `CC(=O)N1CCc2cc(-c3cncc(C#N)c3C)cc(Cl)c21` [Example 10, 5-(1-acetyl-7-chloroindolin-5-yl) 4-methylnicotinotrile], for which the results for the pIC50 in experiment [1] and in experiment [2] were 5.80 and 7.46, respectively.

Consider `CC(=O)N1CCc2cc(-c3cncc(C#N)c3)cc(F)c21` [Example 16, 5-(1-acetyl-7-fluoroindolin-5-yl)nicotinonitrile], for which the negative-log IC50 (pIC50) is under 5.00 in experiment [1] and 7.01 in experiment [2].

With `CC(=O)N1CCc2cc(-c3cccnc3)cc(F)c21` [Example 12, 1-(7-fluoro-5-(pyridine-3-yl)indolin-1-yl) ethanone], the pIC50 in experiment [1] was 6.05; in experiment [2], 8.31.

As to `CC(=O)N1CCc2cc(-c3cccnc3)cc(Cl)c21` [Example 43, 1-(7-chloro-5-(pyridin-3-yl)indolin-1-yl)ethanone], the results for the pIC50 in experiment [1] and in experiment [2] were 6.24 and 8.13, respectively.

Regarding `CC(=O)N1CCc2cc(-c3cccnc3)c(Cl)cc21` [Example 44, 1-(6-chloro-5-(pyridin-3-yl)indoline-1-yl)ethanone], the pIC50 in experiment [1] was 6.33; in experiment [2] it was 6.19.

For the compound `CC(=O)N1CCc2cc(-c3cncc([C@@](C)(O)C(F)(F)F)c3)cc(Cl)c21` [Example 5, (R)-1-(7-chloro-5-(5-(1,1,1,-trifluoro-2hydroxypropan-2-yl)pyridine-3-yl)indolin-1-yl)ethanone], the figures for the pIC50 in experiment [1] and in experiment [2] were 7.28 and 8.62, respectively.

On to `CC(=O)N1CCc2cc(-c3cncc(F)c3)ccc21` [Example 1, 1-(5-(5-fluoropyridin-3-yl)indolin-1-yl)ethanone], for which the pIC50 is under 5.00 in experiment [1] and 6.96 in experiment [2].

As to `CC(=O)N1CCc2cc(-c3cnccc3C(F)(F)F)cc(Cl)c21` [Example 7, 1-(7-chloro-5-(4-(trifluoromethyl)pyridine-3-yl)indolin-1-yl)ethanone], the pIC50 in experiment [1] is 6.21; in experiment [2], 8.30.

These data come from patent publication US9745282B2, “Indoline compounds as aldosterone synthase inhibitors” (Merck Sharp & Dohme Corp., priority 2012, dated 2017).
